Results from US10179770B2, “Quinolines derivatives as novel anticancer agents” (GENOSCIENCE PHARMA, priority 2013, dated 2019).

Legend:
[1] = test system: A375 cell line; test: Combination of XIX-3 and Zelboraf, Bliss independence model; assay type: cell-based, human; conditions: XIX-3 associated with Zelboraf, 72 h
Description: The human melanoma cell lines A375 cultured in Dulbecco's modified Eagle's medium supplemented with 10% Fetal Bovine Serum and 1% Penicillin-Streptomycin and maintained at 37° C. with 5% CO2.
A375 cells were plated at 800 cells per well onto 96-well plates in 90 μL of media per well and were allowed to grow overnight before the assay. XIX-3 and Zelboraf, a compound used for treatment for BRAF V600E mutation-positive metastatic melanoma, were added at different concentrations (combinations of five concentrations of XIX-3 and six concentrations of Zelboraf) to each well, and cell cultures were incubated for 72 h. Vehicle (H2O) was used as a control, and all compounds were tested in a constant percentage of vehicle. Cell outgrowth was measured using a […] Aqueous One Solution Cell Proliferation Assay (Promega) and a TECAN Sunrise plate reader. […] The effects of drug-drug combinations are evaluated in the Bliss independence model (Prichard M. N. and Shipman C. Jr. Antivir. Res. 1990 (14) 181-205; Prichard, M. L. et al. Antimicrob Agents Chemother 1993 (37) 540-545). The theoretical additive effect is calculated from the dose-response curves of individual compounds by the equation: Z=X+Y(1−X) (7) Where: • Z represents the total inhibition produced by the combination of drugs X and Y. • X and Y represent the inhibition produced by drugs X and Y alone, respectively. […]

[2] = test system: SK-MEL-28 cell line; test: as above; assay type: cell-based, human; conditions: XIX-3 associated with Zelboraf, 72 h
Description: The human melanoma cell line SK-MEL-28 was cultured in Minimum Essential Medium (MEM) supplemented with 10% Fetal Bovine Serum and 1% Penicillin-Streptomycin and maintained at 37° C. with 5% CO2.
SK-MEL-28 cells were plated at 2,500 cells per well onto 96-well plates in 90 μL of media per well and were allowed to grow overnight before the assay. XIX-3 and Zelboraf, a compound used for treatment for BRAF V600E mutation-positive metastatic melanoma, were added at different concentrations (combinations of five concentrations of XIX-3 and six concentrations of Zelboraf) to each well, and cell cultures were incubated for 72 h. […] Cell outgrowth was measured using a […] Aqueous One Solution Cell Proliferation Assay (Promega) and a TECAN Sunrise plate reader.
In each experiment, each point represents the average of triplicates in cell culture. The effects of drug-drug combinations are evaluated in the Bliss independence model (Prichard M. N. and Shipman C. Jr. Antivir. Res. 1990 (14) 181-205; Prichard, M. L. et al. Antimicrob Agents Chemother 1993 (37) 540-545). The theoretical additive effect is calculated from the dose-response curves of individual compounds by the equation: Z=X+Y(1−X) (7) Where: • Z represents the total inhibition produced by the combination of drugs X and Y. • X and Y represent the inhibition produced by drugs X and Y alone, respectively. […]

[3] = test system: Capan-1; test: Cell viability assay, pancreatic cancer cell lines; assay type: cell-based; conditions: Homo sapiens; Capan-1 (Pancreas); 48 h
Description: MiaPaCa-2, Panc-1 cells were grown in Dulbecco's modified eagle's medium (DMEM) (Gibco) supplemented with 10% fetal bovine serum (FBS), while BxPC-3, Capan-1, Capan-2 cells were grown in Roswell Park Memorial Institute 1640 (RPMI 1640) (Gibco) supplemented with 10% FBS. Gemcitabine (Gemzar) was purchased from Lilly France S.A.S (Suresnes, France). (3-(4,5-dimethylthiazol-2-yl)-2,5diphenyltetrazolium bromide, MTT) was purchased from Sigma-Aldrich.
BxPC-3, MiaPaCa-2, Panc-1 cells were seeded into a 96-well plate at 10,000 10,000 15,000 cells per well respectively, while Capan-1 and Capan-2 cells at 20,000 cells per well and allowed to adhere overnight. Then the culture medium was removed and replaced with fresh media alone as control or containing various concentrations of different compounds. In dose-dependent assay, the cells were treated with compound XIX-3 at the concentration varying from 0.1 μM to 100 μM while the cells being cultured by fresh media alone were used as control. After 48 h treatment, the number of remained viable cells was determined by (3-(4,5-dimethylthiazol-2-yl)-2,5diphenyltetrazolium bromide, MTT) colorimetric assay (see Sigma Aldrich protocol and Riss T. L. et al. Cell Viability Assays in Assay Guidance Manual 2013 ppl.). All experiments were done in duplicate and repeated two independent times.

SMILES: CCN(CC)C1CCN(C(C)c2cc(-c3ccccc3)nc3ccccc23)CC1.Cl.Cl (stereo not drawn) [XIX-3, 2-phenyl-4-{1-[4-(N,N-diethylamino)piperidin-1-yl]-eth-1-yl}quinoline dihydrochloride]
- Combination effect on cell viability (Bliss independence model) [1]: additive effect (between −20% to +20% indicates additive effect)
- Combination effect on cell viability (Bliss independence model) [2]: additive effect (between −20% to +20% indicates additive effect)
- EC50 [3]: 27 µM
